Results taken from PubChem BioAssay (NCI).
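Compound exposure: 48 hours, 5 concentrations, 96-well plates. The concentration for full growth arrest is given as TGI.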

How the values were obtained:
Test in all cases: growth of human tumour cells (NCI), 48 h
HCT-15 colon = test system: HCT-15 colon
SK-MEL-28 melanoma = test system: SK-MEL-28 melanoma
SK-MEL-5 melanoma = test system: SK-MEL-5 melanoma
MCF7 breast = test system: MCF7 breast
UACC-62 melanoma = test system: UACC-62 melanoma
SF-539 CNS = test system: SF-539 CNS
CAKI-1 renal = test system: CAKI-1 renal
NCI-H23 lung = test system: NCI-H23 lung
SK-MEL-2 melanoma = test system: SK-MEL-2 melanoma
SF-268 CNS = test system: SF-268 CNS
SK-OV-3 ovarian = test system: SK-OV-3 ovarian
OVCAR-5 ovarian = test system: OVCAR-5 ovarian
EKVX NSCLC = test system: EKVX NSCLC
SF-295 CNS = test system: SF-295 CNS
OVCAR-4 ovarian = test system: OVCAR-4 ovarian
OVCAR-8 ovarian = test system: OVCAR-8 ovarian
T-47D breast = test system: T-47D breast
RXF 393 renal = test system: RXF 393 renal
RPMI-8226 leukemia = test system: RPMI-8226 leukemia

| SMILES | TGI (HCT-15 colon) | TGI (SK-MEL-28 melanoma) | TGI (SK-MEL-5 melanoma) | TGI (MCF7 breast) | TGI (UACC-62 melanoma) | TGI (SF-539 CNS) | TGI (CAKI-1 renal) | TGI (NCI-H23 lung) | TGI (SK-MEL-2 melanoma) | TGI (SF-268 CNS) | TGI (SK-OV-3 ovarian) | TGI (OVCAR-5 ovarian) | TGI (EKVX NSCLC) | TGI (SF-295 CNS) | TGI (OVCAR-4 ovarian) | TGI (OVCAR-8 ovarian) | TGI (T-47D breast) | TGI (RXF 393 renal) | TGI (RPMI-8226 leukemia) |
| --- | --- | --- | --- | --- | --- | --- | --- | --- | --- | --- | --- | --- | --- | --- | --- | --- | --- | --- | --- |
| O=C(CCc1ccc(O)cc1)NCCc1ccc(O)cc1 | > 100 µM | > 100 µM | > 100 µM | > 100 µM | > 100 µM | > 100 µM | > 100 µM | > 100 µM | > 100 µM | > 100 µM | > 100 µM | > 100 µM | > 100 µM | > 100 µM | > 100 µM | > 100 µM | > 100 µM | > 100 µM | – |
| O=C(CC(=O)N(C(=O)c1ccccc1)c1ccc(Cl)cc1)N/N=C\c1cc(N=Nc2ccccc2Cl)ccc1O | > 100 µM | > 100 µM | – | > 100 µM | > 100 µM | > 100 µM | > 100 µM | > 100 µM | – | > 100 µM | > 100 µM | > 100 µM | > 100 µM | > 100 µM | – | > 100 µM | > 100 µM | > 100 µM | > 100 µM |
| COc1ccc(-c2c(C(C)=O)c(-c3ccccc3)n(C3OC(COC(C)=O)C(OC(C)=O)C(OC(C)=O)C3OC(C)=O)c(=S)c2C#N)cc1 (stereo unspecified) | > 100 µM | > 100 µM | > 100 µM | > 100 µM | > 100 µM | > 100 µM | > 100 µM | > 100 µM | – | > 100 µM | > 100 µM | > 100 µM | > 100 µM | > 100 µM | > 100 µM | > 100 µM | > 100 µM | > 100 µM | – |
| CCOC(=O)c1c(SC(=O)/C=C/c2ccccc2)n(-c2ccccc2)c(=S)n(-c2ccccc2)c1=O | > 100 µM | > 100 µM | – | > 100 µM | > 100 µM | > 100 µM | > 100 µM | > 100 µM | – | > 100 µM | > 100 µM | > 100 µM | > 100 µM | > 100 µM | > 100 µM | > 100 µM | > 100 µM | > 100 µM | – |
| O=C1NNC(=O)C2C3c4ccccc4C(c4ccccc43)C12 (stereo unspecified) | > 100 µM | > 100 µM | > 100 µM | > 100 µM | > 100 µM | > 100 µM | > 100 µM | > 100 µM | – | > 100 µM | > 100 µM | > 100 µM | > 100 µM | > 100 µM | > 100 µM | > 100 µM | > 100 µM | > 100 µM | > 100 µM |
| Oc1cc(O)c2c(c1)O[C@H](c1cc(O)c(O)c(O)c1)[C@H](O)C2 | > 100 µM | > 100 µM | 37.6 µM | 40.1 µM | – | 48.7 µM | > 100 µM | 65.3 µM | 28.9 µM | 61.2 µM | 56.7 µM | 32 µM | – | 83.7 µM | 46.6 µM | 29.6 µM | 80.7 µM | 29.6 µM | 31.7 µM |
| CC/C(=N/O)c1ccc(Br)s1 | > 100 µM | > 100 µM | > 100 µM | > 100 µM | > 100 µM | > 100 µM | > 100 µM | > 100 µM | > 100 µM | > 100 µM | > 100 µM | > 100 µM | > 100 µM | > 100 µM | > 100 µM | > 100 µM | > 100 µM | > 100 µM | – |
| CCCCn1c(C)c(C(=O)OCC)c2cc(OCc3ccc(C(=O)Nn4c(C)ccc4C)cc3)c(Br)cc21 | > 100 µM | > 100 µM | > 100 µM | > 100 µM | > 100 µM | > 100 µM | > 100 µM | > 100 µM | > 100 µM | > 100 µM | > 100 µM | > 100 µM | > 100 µM | > 100 µM | > 100 µM | > 100 µM | > 100 µM | – | > 100 µM |
| C/C(=N\NC(=S)N1CC2CCC(CC2)C1)c1ccncn1 | – | > 22.6 µM | 0.833 µM | 7.61 µM | 1.04 µM | 2.02 µM | 2.44 µM | 2.4 µM | 5.39 µM | 3.62 µM | 1.6 µM | 5.44 µM | 4.21 µM | 4.94 µM | 9.92 µM | – | 3.48 µM | 2.25 µM | – |
| CC1=C2C3=C(C)C(=O)C(C)(C)CC[C@@]3(C)[C@]2(C)CCC(C)(C)C1=O | > 100 µM | – | > 100 µM | > 100 µM | > 100 µM | > 100 µM | > 100 µM | > 100 µM | – | > 100 µM | > 100 µM | > 100 µM | > 100 µM | > 100 µM | > 100 µM | > 100 µM | > 100 µM | > 100 µM | > 100 µM |
